7 molecules from the supplement of paper PMC11061612 can be followed below.

What all share (assay): Bliss excess, mean over the matrix (fraction); higher = more synergy
Test [1] deals with MDA-MB-175-VII (Breast Carcinoma). The gist of the method:
(§1)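 Bliss excess equals the observed combination effect minus the expected value EA + EB − EA·EB, where EA and EB are the effects of each agent alone. Combination Emax is the second-highest inhibition within the matrix. Inhibition was scaled from CellTiter-Glo 2.0 luminescence, with 0 set by vehicle wells and 1 by blank wells, after 72 hours of two-drug dosing of cells plated in 1536-well plates.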

The test system of test [2] is OCI-M1 (Acute Myeloid Leukemia). The gist of the method: as §1
Test [3] has as its system RS4-11 (B-Lymphoblastic Leukemia). The gist of the method: as §1
The subject of test [4] is TK (B-Cell Non-Hodgkin's Lymphoma). The gist of the method: as §1
The subject of test [5] is NCI-H2170 (Squamous Cell Lung Carcinoma). Summed up:
as §1

The next test has as its system SK-N-DZ (Neuroblastoma). The gist of the method:
as §1

Test [6] deals with BT-474 (Breast Carcinoma). Summed up: as §1
Test [7] concerns L-363 (Plasma Cell Myeloma). Summed up: as §1
The subject of test [8] is COR-L105 (Lung Adenocarcinoma). The gist of the method: as §1
In the next test the test system is A375 (Melanoma). The gist of the method:
as §1

Another test concerns HT-144 (Melanoma). Summed up:
as §1

Test [9] deals with SBC-5 (Small Cell Lung Carcinoma). The gist of the method:
as §1

The test system of test [10] is KNS-62 (Squamous Cell Lung Carcinoma). The gist of the method:
as §1

In test [11] the test system is CAL-85-1 (Breast Carcinoma). The gist of the method:
as §1

The subject of test [12] is IGROV-1 (Ovarian Carcinoma). The gist of the method: as §1
A further test has as its system C32 (Melanoma). Summed up: as §1
The test system of test [13] is NCI-H2023 (Non-Small Cell Lung Carcinoma). Summed up: as §1
The test system of a further test is DK-MG (Glioblastoma). The gist of the method: as §1
The next test relates to MG-63 (Osteosarcoma). Summed up:
as §1

A further test relates to NCI-H2452 (Mesothelioma). The gist of the method:
as §1

Take `C[C@@H]1COCCN1c1cc(C2([S@](C)(=N)=O)CC2)nc(-c2ccnc3[nH]ccc23)n1` [AZD6738] + O=C(c1cc(Cc2n[nH]c(=O)c3ccccc23)ccc1F)N1CCN(C(=O)C2CC2)CC1 [Olaparib] (first compound max 10 µM, 7x7, partner max 10 µM): the Bliss excess in [1] is 0.0522; in test [2], -0.017; in [3], -0.0365; in test [4] it was -0.0552; in test [5] it was -0.0373; in the test with SK-N-DZ (Neuroblastoma) it was -0.0019. The Bliss excess in [6] was -0.0135; in [7], -0.0892; in test [8], -0.0435; with A375 (Melanoma) it was 0.0238; with HT-144 (Melanoma), 0.0461; in [9] it was 0.0025. Moreover, the Bliss excess in test [10] is 0.0026; in test [11], -0.0003; in test [12], -0.0169; in the test with C32 (Melanoma) it was 0.0019; in test [13], 0.0867; with DK-MG (Glioblastoma), 0.0079. Moreover, the figures for the Bliss excess with MG-63 (Osteosarcoma) and in the test on NCI-H2452 (Mesothelioma) were 0.047 and -0.0415, respectively.

With `NC1(C(=O)N[C@@H](CCO)c2ccc(Cl)cc2)CCN(c2ncnc3[nH]ccc23)CC1` [Capivasertib] + CC(=O)c1c(C)c2cnc(Nc3ccc(N4CCNCC4)cn3)nc2n(C2CCCC2)c1=O [Palbociclib] (first compound max 10 µM, 7x7, partner max 10 µM), the Bliss excess in [1] is 0.0127; in test [2], -0.0056; in test [3], -0.0425; in [4] it was -0.0218; in test [5], 0.0137; with SK-N-DZ (Neuroblastoma) it was 0.0628. For the same molecule, the Bliss excess in [6] is -0.0261; in test [7], -0.0413; in test [8], 0.0532; with A375 (Melanoma) it was 0.0051; in the test with HT-144 (Melanoma) it was -0.0486; in test [9], 0.0352. The Bliss excess in test [10] was -0.0236; in test [11], -0.0019; in test [12], -0.048; with C32 (Melanoma), 0.0018; in [13], 0.0276; in the test with DK-MG (Glioblastoma), -0.0228. Also, the Bliss excess in the test with MG-63 (Osteosarcoma) was 0.0404; in the test with NCI-H2452 (Mesothelioma), -0.02.

On to `NC1(C(=O)N[C@@H](CCO)c2ccc(Cl)cc2)CCN(c2ncnc3[nH]ccc23)CC1` [Capivasertib] + CC(C)n1c(=O)n(C)c2cnc3cc(F)c(-c4ccc(OCCCN5CCCCC5)nc4)cc3c21 [AZD1390] (first compound max 10 µM, 7x7, partner max 0.3 µM), for which the Bliss excess was -0.0189 in test [1]; -0.0268 in [2]; 0.0078 in [3]; -0.0045 in test [4]; -0.0679 in [5]; -0.0605 in the test on SK-N-DZ (Neuroblastoma). In addition, the Bliss excess was -0.0406 in [6]; -0.0749 in test [7]; -0.0635 in test [8]; -0.0496 in the test on A375 (Melanoma); -0.0688 with HT-144 (Melanoma); -0.0792 in test [9]. Moreover, the Bliss excess in test [10] was -0.0458; in test [11], -0.0213; in test [12], -0.0147; in the test with C32 (Melanoma) it was -0.0343; in test [13], -0.0587; in the test with DK-MG (Glioblastoma), -0.0847. Moreover, the Bliss excess is -0.0844 in the test on MG-63 (Osteosarcoma) and -0.0922 in the test with NCI-H2452 (Mesothelioma).

Take `NC1(C(=O)N[C@@H](CCO)c2ccc(Cl)cc2)CCN(c2ncnc3[nH]ccc23)CC1` [Capivasertib] + CCN(CCO)CCCOc1ccc2c(Nc3cc(CC(=O)Nc4cccc(F)c4)[nH]n3)ncnc2c1 [AZD2811] (first compound max 10 µM, 7x7, partner max 1 µM): the Bliss excess in [1] was -0.0202; in test [2], 0.066; in test [3], -0.0504; in test [4] it was 0.0103; in [5], 0.0135; in the test on SK-N-DZ (Neuroblastoma), 0.0051. For the same molecule, the Bliss excess in test [6] was 0.0025; in test [7] it was -0.0235; in [8], -0.0523; in the test on A375 (Melanoma), -0.0008; in the test on HT-144 (Melanoma), -0.0195; in test [9], 0.0526. Moreover, the Bliss excess in test [10] was -0.0086; in [11] it was -0.0241; in test [12] it was -0.0632; with C32 (Melanoma) it was 0.0477; in test [13], -0.0087; with DK-MG (Glioblastoma) it was -0.0447. Moreover, the Bliss excess in the test with MG-63 (Osteosarcoma) is -0.0295; in the test with NCI-H2452 (Mesothelioma) it was -0.079.

As to `NC1(C(=O)N[C@@H](CCO)c2ccc(Cl)cc2)CCN(c2ncnc3[nH]ccc23)CC1` [Capivasertib] + COc1nnc2ccc(N3CCC(c4ccc(OCCN5CCN(C)C(=O)[C@H]5C)cc4)CC3)nn12 [AZD5153] (first compound max 10 µM, 7x7, partner max 1 µM), the Bliss excess in [1] was 0.0129; in [2] it was -0.0026; in test [3], 0.089; in [4] it was 0.012; in test [5], 0.0383; in the test with SK-N-DZ (Neuroblastoma), 0.0675. Besides, the Bliss excess worked out at 0.0761 in test [6]; 0.108 in test [7]; 0.0024 in [8]; 0.009 in the test on A375 (Melanoma); 0.0653 in the test on HT-144 (Melanoma); 0.0351 in [9]. Moreover, the Bliss excess was 0.0035 in test [10]; 0.0009 in [11]; -0.0221 in [12]; 0.0434 in the test on C32 (Melanoma); 0.0221 in [13]; 0.0534 in the test on DK-MG (Glioblastoma). Further, the Bliss excess with MG-63 (Osteosarcoma) is -0.0237; in the test with NCI-H2452 (Mesothelioma) it was -0.0192.

In the case of `NC1(C(=O)N[C@@H](CCO)c2ccc(Cl)cc2)CCN(c2ncnc3[nH]ccc23)CC1` [Capivasertib] + C[C@@H]1COCCN1C2=NC(=NC(=C2)C3(CC3)[S@](=N)(=O)C)C4=C5C=CNC5=NC=C4 [AZD6738] (first compound max 10 µM, 7x7, partner max 10 µM), the Bliss excess in test [1] was -0.0407; in [2], 0.0211; in test [3] it was -0.0276; in test [4], -0.0045; in [5] it was -0.0011; in the test on SK-N-DZ (Neuroblastoma), 0.0045. The Bliss excess was 0.0314 in [6]; -0.0201 in test [7]; -0.034 in test [8]; -0.0239 with A375 (Melanoma); -0.0292 in the test with HT-144 (Melanoma); -0.0169 in test [9]. The Bliss excess in [10] was -0.0305; in test [11], -0.0062; in [12], -0.0883; in the test with C32 (Melanoma) it was -0.0288; in [13] it was 0.0282; with DK-MG (Glioblastoma) it was -0.0405. In addition, the Bliss excess with MG-63 (Osteosarcoma) was -0.0524; in the test on NCI-H2452 (Mesothelioma), -0.0827.

As to `NC1(C(=O)N[C@@H](CCO)c2ccc(Cl)cc2)CCN(c2ncnc3[nH]ccc23)CC1` [Capivasertib] + Cn1cnc2c(F)c(Nc3ccc(Br)cc3Cl)c(C(=O)NOCCO)cc21 [Selumetinib] (first compound max 10 µM, 7x7, partner max 10 µM), the Bliss excess in [1] is 0.0989; in test [2], 0.0825; in test [3], -0.016; in test [4], -0.0189; in test [5], 0.0047; in the test with SK-N-DZ (Neuroblastoma), 0.0254. Further, the Bliss excess in test [6] was 0.0509; in test [7], 0.0156; in [8] it was -0.0333; in the test on A375 (Melanoma) it was 0.0344; in the test on HT-144 (Melanoma), 0.0042; in [9], 0.0801. The Bliss excess was 0.119 in [10]; -0.0429 in test [11]; -0.0493 in [12]; 0.0905 in the test on C32 (Melanoma); -0.0583 in [13]; 0.0686 with DK-MG (Glioblastoma). Besides, the Bliss excess is -0.0011 in the test with MG-63 (Osteosarcoma) and -0.092 with NCI-H2452 (Mesothelioma).
